From patent US6229029A, “11β-aryl substituted 14,17-ethanoestratriens, method for the production of these compounds and their use in the production of medicaments” (Schering Aktiengesellschaft, priority 1997, dated 2001) come the findings set out here.

For this experiment, the system named is uterus of infant rats. Briefly: Uterus growth test on infant rats (estrogenic action). The format is in vivo, rat. The conditions noted are these: for Epithelial Height % E2 / Uterus Weight % E2: 3 days, infant rats. The source says:
The influence of the compounds according to the invention on the uterus was examined in the uterus growth test (estrogenic action) and in the anti-uterus growth test (antiestrogenic action), both performed on infant rats.
In infant animals, both uterus and vagina show one of the estrogenic activity-dependent weight increases in their treatment with an estrogenically active substance. In the uterus, under estrogenic action, moreover, it results in a proliferation and height increase of the luminal epithelium.
Immature, normal rats (body weight 40-50 g) receive the substance s.c. over 3 days (d1-d3). On day 4 (d4), the animals are sacrificed with CO2. The uteri are prepared outside and weighed. A piece of the uterus, preferably a uterine horn, is set in formaldehyde for the histological evaluation and embedded in paraffin. The stimulation of the organ weights (relative to mg/100 g of body weight) and the epithelial height are indicated in percentage stimulation in comparison to the reference compound 17β-estradiol. (Substitution dose E2 0.3 μg/animal).

Turning to `C[C@]12C[C@H](c3ccc(OCCCCCS(=O)(=O)Cc4ccccn4)cc3)[C@@H]3c4ccc(O)cc4CC[C@H]3[C@]13CC[C@@]2(O)CC3` [Compound A], the “Epithelial Height % E2” value by setting is: (0.01 mg/kg s.c.) 6 % E2; (0.1 mg/kg s.c.) -16 % E2; (1 mg/kg s.c.) -8 % E2; (10 mg/kg s.c.) -22 % E2. For the same compound, the “Uterus Weight % E2” value (0.01 mg/kg s.c.) amounted to 2 % E2, the “Uterus Weight % E2” value (0.1 mg/kg s.c.) is 0 % E2, the “Uterus Weight % E2” value (1 mg/kg s.c.) is recorded as -7 % E2 and the “Uterus Weight % E2” value (10 mg/kg s.c.) is -15 % E2. Further, the “estrogenic action in the uterus (in words)” value (s.c., uterus growth test) was “without any estrogenic action in the uterus”.
